From patent publication US12287322B2, “Composition for detecting hydrogen sulfide or measuring hydrogen sulfide concentration and composition comprising same as effective ingredient for diagnosing or imaging in vivo inflammation, tissues having hypoxic damage, or cancer” (SEOUL NATIONAL UNIVERSITY R&DB FOUNDATION, priority 2018, dated 2025)

Experiments:
[1] = system: reperfused brain after middle cerebral artery occlusion; assay: Autoradiography of brain reperfused after middle cerebral artery occlusion; assay type: in vivo, mouse; details: 2 hours occlusion, 12 hours recovery, 1 mCi tail vein, brain extracted after 1 hour, compared with TTC staining, FIG. 11
[2] = system: inflamed tissue where hydrogen sulfide was generated (carrageenan hind paw); assay: SPECT-CT imaging of carrageenan-inflamed tissue where hydrogen sulfide is produced; assay type: in vivo; details: mouse, 300 μCi tail vein 4 hours after 1% carrageenan, SPECT-CT after 1 hour, FIG. 10
Procedure: It has been reported that hydrogen sulfide was generated in the inflamed tissue induced by the administration of carrageenan (Li L, Bhatia M, Zhu Y Z, et al. FASEB J. (2005) 19:1196-1198; Bhatia M, Sidhapuriwala J, Moochhala S M, et al. Br J Pharmacol. (2005) 145:141-144.). Accordingly, the following experiment was performed to confirm whether the imaging of the inflamed tissue where hydrogen sulfide was generated was possible when the ^99mTc-alpha-hydroxy acid according to the present invention was administered.
30 μL of physiological saline containing 1% carrageenan was injected into the right hind paw of a mouse, and 30 μL of physiological saline was injected into the left hind paw of the mouse.

[3] = Reaction of ^99mTc-alpha-hydroxy acid with glutathione, insoluble substances by ITLC; details: 4 mM glutathione in 0.2 M sodium phosphate buffer pH 7.4, 37° C., 15 minutes
Procedure: (§1) Particularly, the ^99mTc-alpha-hydroxy acid prepared in Example 1 was diluted 5 times with physiological saline, and then 100 μL of each diluent was taken, to which 100 μL of each of 0.2 M sodium phosphate buffer (pH 7.4) containing 0.4 mM NaHS, 4 mM glutathione, 0.4 mM cysteine, 0.4 mM sodium sulfite, 0.4 mM sodium sulfate, 0.4 mM sodium thiosulfate, and 0.4 mM NONOate (NO generating reagent) was added, followed by reaction at 37° C. for 15 minutes. Then, ITLC was developed with physiological saline to determine the percentage of the radioactivity remaining at the origin.

[4] = Reaction of ^99mTc-alpha-hydroxy acid with NO (NONOate), insoluble substances by ITLC; details: 0.4 mM NONOate in 0.2 M sodium phosphate buffer pH 7.4, 37° C., 15 minutes
Procedure: as §1

[5] = Reaction of ^99mTc-alpha-hydroxy acid with sodium sulfate, insoluble substances by ITLC; details: 0.4 mM sodium sulfate in 0.2 M sodium phosphate buffer pH 7.4, 37° C., 15 minutes
Procedure: as §1

[6] = Reaction of ^99mTc-alpha-hydroxy acid with sodium thiosulfate, insoluble substances by ITLC; details: 0.4 mM sodium thiosulfate in 0.2 M sodium phosphate buffer pH 7.4, 37° C., 15 minutes
Procedure: as §1

[7] = ^99mTc-alpha-hydroxy acid in phosphate buffer alone, insoluble substances by ITLC; details: 0.2 M sodium phosphate buffer pH 7.4 alone, 37° C., 15 minutes
Procedure: as §1

[8] = Reaction of ^99mTc-alpha-hydroxy acid with cysteine, insoluble substances by ITLC; details: 0.4 mM cysteine in 0.2 M sodium phosphate buffer pH 7.4, 37° C., 15 minutes
Procedure: as §1

[9] = Reaction of ^99mTc-alpha-hydroxy acid with sodium sulfite, insoluble substances by ITLC; details: 0.4 mM sodium sulfite in 0.2 M sodium phosphate buffer pH 7.4, 37° C., 15 minutes
Procedure: as §1

[10] = Reaction of ^99mTc-alpha-hydroxy acid with NaHS, insoluble substances by ITLC; details: 0.4 mM NaHS in 0.2 M sodium phosphate buffer pH 7.4, 37° C., 15 minutes; radioactivity at origin, ITLC saline
Source text: Then, ITLC was developed with physiological saline to determine the percentage of the radioactivity remaining at the origin.

hydrogen sulfide in paw = assay: Hydrogen sulfide concentration in inflamed area (DMPD/FeCl3, absorbance 665 nm); assay type: in vivo; details: mouse paw, 4 hours after 30 μL 1% carrageenan, n=3
Procedure: In order to confirm that the concentration of hydrogen sulfide in the inflamed area was higher than the concentration of hydrogen sulfide in the normal area, it was measured as follows using a method described in the literature (A D Ang, A Konigstorfer, G I Giles, M Bhatia. Adv Biol Chem, 2012, 2:360-365). After 4 hours, the mouse was euthanized with carbon dioxide gas, and the ankle was cut and the weight was measured. 500 μL of 50 mM sodium carbonate buffer (pH 9) chilled with ice was added thereto and homogenized for 30 seconds gently, 1 minute 30 seconds moderately, and 30 seconds vigorously. After centrifugation at 1200×g for 5 minutes, the supernatant was obtained, to which 400 μL of a mixed solution of 350 μL of 1% zinc acetate and 50 μL of 1.5 M sodium hydroxide was added, followed by mixing well. After centrifugation at 1200×g for 5 minutes, the supernatant was discarded. To the precipitated pellet, 1 mL of distilled water saturated with nitrogen was added, which was mixed by vortexing for 1 minute. After centrifugation at 1200×g for 5 minutes, the supernatant was discarded. […] After reacting at room temperature for 15 minutes, absorbance was measured at 665 nm. A standard quantification curve was drawn with a standard sample measured by the same method, and then quantified.

Compound	distribution of radioactivity in brain sections [1]	radioactivity of the inflamed area versus area administered with physiological saline [2]	percentage of insoluble substances produced after reaction with Glutathione [3] [%]	percentage of insoluble substances produced after reaction with NO [4] [%]	percentage of insoluble substances produced after reaction with Sodium sulfate [5] [%]	percentage of insoluble substances produced after reaction with Thiosodium sulfate [6] [%]	percentage of insoluble substances produced in Buffer [7] [%]	percentage of insoluble substances produced after reaction with Cysteine [8] [%]	percentage of insoluble substances produced after reaction with Sodium sulfite [9] [%]	percentage of insoluble substances produced after reaction with NaHS [10] [%]	concentration of hydrogen sulfide in the paws (hydrogen sulfide in paw) [µM]
OC[C@H]1OC(O)[C@H]([18F])[C@@H](O)[C@@H]1O (stereo partly shown) [[^18F] FDG, reference compound]	almost overlapped with the red area stained by TTC										
O=C1[O][99Tc-]2(=[O])([O]C(=O)C(C(O)C(O)C(O)C(O)CO)[O]2)[O]C1C(O)C(O)C(O)C(O)CO (stereo not shown) [^99mTc-glucoheptonate]		clearly higher									
O=C1[O][99Tc-]2(=[O])([O]C(=O)[C@@H]([C@@H](O)[C@H](O)[C@H](O)CO)[O]2)[O][C@@H]1[C@@H](O)[C@H](O)[C@H](O)CO [^99mTc-gluconate]	ingested at the boundary area rather than completely dead brain tissues and the normal brain tissues	clearly higher	12.0 ± 2.4	6.1 ± 1.0	7.9 ± 1.5	6.5 ± 1.0	8.7 ± 1.8	5.1 ± 0.6	6.4 ± 0.7		
^99mTc-citrate			7.5 ± 1.7	5.6 ± 0.4	8.0 ± 0.5	5.5 ± 0.1	4.0 ± 0.1	2.1 ± 0.2	7.8 ± 0.7	8.3±1.0	
^99mTc-glucarate			13.4 ± 2.7	4.7 ± 0.7	4.6 ± 0.5	5.6 ± 0.3	4.6 ± 0.5	6.4 ± 1.7	5.5 ± 0.8	37.0±4.7	
carrageenan											43.7 ± 3.5
